Reference: US6914045B2, “Glycopeptide antibiotics” (Wyeth Holdings Corporation, priority 2001, dated 2005)
In brackets after ≈: the same amount, converted by molar mass.

How the values were obtained:
[1] = test system: Escherichia coli; assay: in vitro antibacterial evaluation, MIC by broth dilution; format: cell-based; conditions: broth dilution, 18 hours at 35° C.
Summary of the method: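 Broth dilution in Muller-Hinton II medium per NCCLS standard M7-A2, with an inoculum of 5×10^5 CFU/mL and antibiotic tested over 64-0.06 μg/mL. MIC was taken as the lowest concentration inhibiting visible growth.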

[2] = test system: Streptococcus sp.; assay: as above; format: cell-based; conditions: broth dilution, 18 hours at 35° C.
Summary of the method: (§1)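 Following National Committee for Clinical Laboratory Standards recommendations (M7-A2), susceptibility was measured by dilution in Muller-Hinton II […]. Bacteria were seeded at 5×10^5 CFU/mL against compound concentrations from 64 down to 0.06 μg/mL.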

[3] = test system: Enterococcus sp.; assay: as above; format: cell-based; conditions: broth dilution, 18 hours at 35° C.
Summary of the method: as §1

[4] = test system: Staphylococcus sp.; assay: as above; format: cell-based; conditions: broth dilution, 18 hours at 35° C.
Summary of the method: as §1

[5] = anatomic pathology (histopathology of heart and kidney) in mice; format: in vivo; conditions: CD-1 mice, 20 mg/kg intravenously daily for 9 days, necropsy day 10, microscopic histopathology
Protocol: Samples of tissues from necropsied mice were formalin-fixed, paraffin-embedded, sectioned, stained with hematoxylin and eosin, and examined microscopically. Histopathologic findings were recorded. These findings were subjectively graded on a scale corresponding to slight, mild, moderate, marked and severe as compared to untreated controls.

[6] = test system: Staphylococcus aureus-SMITH (GC 4543); assay: acute lethal infection in mice; format: in vivo; conditions: acute lethal infection, female CD-1 mice, intraperitoneal challenge, intravenous 30 min. after infection, 7 day survival
Summary of the method: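 Female CD-1 mice (20+/−2 gm) were infected intraperitoneally with enough bacteria, suspended in trypticase soy broth or hog gastric mucin, to kill untreated controls within 24-48 hr. Compound in saline or 5% dextrose was given intravenously 30 min post-infection, five mice per dose. ED50 came from pooled 7 day survival of 3 tests.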

Cc1ccc(Oc2cccc(-c3nc4cc(CC5NC(=O)C(C(C)c6ccccc6)NC(=O)CNC(=O)C(CO)NC(=O)C(C(O)C6CNC(=N)N6C6OC(CO)C(O)C(O)C6O)NC(=O)C(C(O)C6CNC(=N)N6)NC5=O)ccc4o3)c2)cc1 (stereo not drawn) [Example 28, Cyclo[3-[2-[3-(4-methylphenoxy)phenyl]-1,3-benzoxazol-5-yl]alanyl-3-(2-iminoimidazolidin-4-yl)seryl-3-(3-hexopyranosyl-2-iminoimidazolidin-4-yl)serylserylglycyl-β-methylphenyl-alanyl]]
MIC Escherichia coli (ATCC 25922) ([1]; strain ATCC 25922): 64 µg/mL (≈ 54.3 µM) | MIC Escherichia coli (GC 4559) ([1]; strain GC 4559): 64 µg/mL (≈ 54.3 µM) | MIC Escherichia coli (GC 4560) ([1]; strain GC 4560): 8 µg/mL (≈ 6.79 µM) | MIC Streptococcus pneumoniae (ATCC 6301) ([2]; strain ATCC 6301): 4 µg/mL (≈ 3.39 µM) | MIC Streptococcus pneumoniae (GC 1894) ([2]; strain GC 1894): 4 µg/mL (≈ 3.39 µM) | MIC Streptococcus pyogenes (GC 4563) ([2]; strain GC 4563): 1 µg/mL (≈ 0.849 µM) | MIC Streptococcus agalactiae (GC 4564) ([2]; strain GC 4564): 4 µg/mL (≈ 3.39 µM) | MIC Streptococcus pneumoniae (GC 4565) ([2]; strain GC 4565): 4 µg/mL (≈ 3.39 µM) | MIC Enterococcus faecalis (ATCC 29212) ([3]; strain ATCC 29212): 8 µg/mL (≈ 6.79 µM) | MIC Enterococcus faecalis (GC 2242) ([3]; strain GC 2242): 4 µg/mL (≈ 3.39 µM) | MIC Enterococcus faecium (GC 2243) ([3]; strain GC 2243): 8 µg/mL (≈ 6.79 µM) | MIC Enterococcus faecalis (GC 2691) ([3]; strain GC 2691): 8 µg/mL (≈ 6.79 µM) | MIC Enterococcus faecalis (GC 3059) ([3]; strain GC 3059): 8 µg/mL (≈ 6.79 µM) | MIC Enterococcus faecalis (GC 4552) ([3]; strain GC 4552): 8 µg/mL (≈ 6.79 µM) | MIC Enterococcus faecalis (GC 4553) ([3]; strain GC 4553): 4 µg/mL (≈ 3.39 µM) | MIC Enterococcus faecalis (GC 4554) ([3]; strain GC 4554): 8 µg/mL (≈ 6.79 µM) | MIC Enterococcus faecium (GC 4556) ([3]; strain GC 4556): 8 µg/mL (≈ 6.79 µM) | MIC Enterococcus faecium (GC 4557) ([3]; strain GC 4557): 4 µg/mL (≈ 3.39 µM) | MIC Enterococcus avium (GC 4558) ([3]; strain GC 4558): 4 µg/mL (≈ 3.39 µM) | MIC Enterococcus faecalis (GC 6189) ([3]; strain GC 6189): 8 µg/mL (≈ 6.79 µM) | MIC Staphylococcus aureus (ATCC 29213) ([4]; strain ATCC 29213): 8 µg/mL (≈ 6.79 µM) | MIC Staphylococcus aureus (GC 1131) ([4]; strain GC 1131): 8 µg/mL (≈ 6.79 µM) | MIC Staphylococcus aureus (GC 3051) ([4]; strain GC 3051): 4 µg/mL (≈ 3.39 µM) | MIC Staphylococcus aureus (GC 3053) ([4]; strain GC 3053): 4 µg/mL (≈ 3.39 µM) | MIC Staphylococcus aureus (GC 4541) ([4]; strain GC 4541): 8 µg/mL (≈ 6.79 µM) | MIC Staphylococcus aureus (GC 4542) ([4]; strain GC 4542): 8 µg/mL (≈ 6.79 µM) | MIC Staphylococcus aureus-SMITH (GC 4543) ([4]; strain GC 4543): 4 µg/mL (≈ 3.39 µM) | MIC Staphylococcus aureus (GC 4544) ([4]; strain GC 4544): 8 µg/mL (≈ 6.79 µM) | MIC Staphylococcus aureus (GC 4545) ([4]; strain GC 4545): 4 µg/mL (≈ 3.39 µM) | MIC Staphylococcus haemolyticus (GC 4546) ([4]; strain GC 4546): 4 µg/mL (≈ 3.39 µM) | MIC Coagulase Negative Staphylococcus (GC 4547) ([4]; strain GC 4547): 8 µg/mL (≈ 6.79 µM) | MIC Coagulase Negative Staphylococcus (GC 4548) ([4]; strain GC 4548): 4 µg/mL (≈ 3.39 µM) | MIC Coagulase Negative Staphylococcus (GC 4549) ([4]; strain GC 4549): 4 µg/mL (≈ 3.39 µM) | MIC Coagulase Negative Staphylococcus (GC 4551) ([4]; strain GC 4551): 4 µg/mL (≈ 3.39 µM) | MIC Coagulase Negative Staphylococcus (GC 6257) ([4]; strain GC 6257): 2 µg/mL (≈ 1.7 µM) | Anatomical Pathology (Day 10), Heart [5]: 0 | Anatomical Pathology (Day 10), Kidney [5]: 0 | median effective dose (ED50), Staphylococcus aureus-SMITH (GC 4543) [6]: 8 mg/kg
